# Measurements as given in publication PMC6133161, “Thiazoles with cyclopropyl fragment as antifungal, anticonvulsant, and anti-Toxoplasma gondii agents: synthesis, toxicity evaluation, and molecular docking study” (Medicinal Chemistry Research, 2018).
# Test system: Toxoplasma gondii RH strain
# Assay: [3H]-uracil incorporation assay in VERO host cells
smiles,measurement,setting,value
"Nc1ccc(S(=O)(=O)Nc2ncccn2)cc1 [Sulfadiazine, reference compound]",Proliferation of Tg ± SD,1 µg/ml,104.59 ±4.12%
same,Proliferation of Tg ± SD,5 µg/ml,96.71 ±3.85%
same,Proliferation of Tg ± SD,25 µg/ml,78.58 ±4.67%
same,Proliferation of Tg ± SD,50 µg/ml,67.99 ±7.73%
same,Proliferation of Tg ± SD,125 µg/ml,65.58 ±4.80%
same,Proliferation of Tg ± SD,250 µg/ml,61.79 ±3.13%
same,Proliferation of Tg ± SD,500 µg/ml,56.68 ±3.64%
same,Proliferation of Tg ± SD,1250 µg/ml,45.17 ±1.03%
same,Proliferation of Tg ± SD,2500 µg/ml,45.36 ±0.58%
same,IC50,"Toxoplasma gondii, Vero, read-out: IC50 anti-Tg",936 µg/mL
